# Legend:
# Assay type in all cases: in vivo
# [1] = system: HEOEU = common heliotrope (Heliotropium europaeum); assay: Field trial, autumn post-emergence application, residual weed control (Table 3); settings: rated 56 Days After Application
# Procedure: (§1) Evaluation of Pre-Emergence and Post-Emergence Herbicidal Activity of Mixtures in the Field
# (§2) Field trials were conducted in perennial tree and vine crops using standard herbicide small plot research methodology. Plots varied from 3×3 meter (m) to 3×10 m (width×length) with 3 to 4 replicates per treatment. The perennial tree and vine crops were grown using normal cultural practices for the respective areas for the trials, using normal planting, fertilization, watering, flooding and maintenance for pests to ensure good growth of the crop and the weeds.
# (§3) All treatments in the field trials were applied using a carbon dioxide (CO2) backpack sprayer calibrated to apply 187 liters per hectare (L/ha) spray volume. Commercially available products of penoxsulam and oxyfluorfen were mixed in water at appropriate formulated product rates to achieve the desired rates shown based on a unit area of application (hectare). Treatments were rated at different intervals from treatment to evaluation, from 7 to 175 days after application as compared to the untreated control plants. Due to the long term residual weed control needed to determine the synergistic effect, all single entity products and their tank mixes were mixed with glyphosate to ensure complete weed burndown to be able to measure residual weed control and not just burndown of weeds. Visual weed control was scored on a scale of 0 to 100 percent where 0 corresponds to no injury and 100 corresponds to complete kill.
# (§4) Colby's equation was used to determine the herbicidal effects expected from the mixtures (Colby, S. R. Calculation of the synergistic and antagonistic response of herbicide combinations. Weeds 1967, 15, 20-22).
# (§5) The following equation was used to calculate the expected activity of mixtures containing two active ingredients, A and B: Expected=A+B−(A×B/100)
# (§6) A=observed efficacy of active ingredient A at the same concentration as used in the mixture.
# (§7) B=observed efficacy of active ingredient B at the same concentration as used in the mixture.
# [2] = system: CHEAL = common lambsquarter (Chenopodium album); assay: as above; settings: rated 56 Days After Application
# Procedure: as §1, §2, §3, §4, §5, §6, §7
# [3] = system: POROL = purslane (Portulaca oleracea); assay: as above; settings: rated 56 Days After Application
# Procedure: as §1, §2, §3, §4, §5, §6, §7
# [4] = system: ERICA = marestail (Conyza canadensis); assay: Field trial, autumn pre-emergence application, residual weed control (Table 2); settings: Spain, rated 97 to 175 Days After Application; for % Control ERICA (2) Ob (observed visual weed control): Moron de la frontera; for % Control ERICA (1) Ob (observed visual weed control): Utrera
# Procedure: as §1, §2, §3, §4, §5, §6, §7
# [5] = system: SHRAR = field madder (Sherardia arvensis); assay: as above; settings: rated 97 to 175 Days After Application
# Procedure: as §1, §2, §3, §4, §5, §6, §7
# [6] = system: SOLNI = black nightshade (Solanum nigrum); assay: Field trial, autumn post-emergence application, post-emergence burndown activity (Table 4); settings: Seville; for % Control SOLNI(2) Ob (observed visual weed control): Spain - 7 Days After Application; for % Control SOLNI(1) Ob (observed visual weed control): Spain - 20 Days After Application
# Procedure: as §1, §2, §3, §4, §5, §6, §7
# [7] = system: ERICA = marestail (Conyza canadensis); assay: Field trial, winter pre-emergence application, residual weed control (Table 1); settings: rated 50 to 132 Days After Application
# Procedure: as §1, §2, §3, §4, §5, §6, §7
# [8] = system: MALNE = mallow/malva (Malva neglecta); assay: as above; settings: rated 50 to 132 Days After Application
# Procedure: as §1, §2, §3, §4, §5, §6, §7
# [9] = system: ERIBO = fleabane (Conyza bonariensis); assay: as above; settings: rated 50 to 132 Days After Application
# Procedure: as §1, §2, §3, §4, §5, §6, §7
smiles,measurement,setting,value
CCOc1cc(Oc2ccc(C(F)(F)F)cc2Cl)ccc1[N+](=O)[O-] [Oxyfluorfen],% Control HEOEU Ob (observed visual weed control),[1]; oxyfluorfen 150 g/ha alone,0%
same,% Control CHEAL Ob (observed visual weed control),[2]; oxyfluorfen 150 g/ha alone,0%
same,% Control POROL Ob (observed visual weed control),[3]; oxyfluorfen 150 g/ha alone,0%
same,% Control ERICA (2) Ob (observed visual weed control),[4]; oxyfluorfen 150 g/ha alone,79%
same,% Control ERICA (1) Ob (observed visual weed control),[4]; oxyfluorfen 150 g/ha alone,38%
same,% Control SHRAR Ob (observed visual weed control),[5]; oxyfluorfen 150 g/ha alone,63%
same,% Control SOLNI(2) Ob (observed visual weed control),[6]; oxyfluorfen 150 g/ha alone,45%
same,% Control SOLNI(1) Ob (observed visual weed control),[6]; oxyfluorfen 150 g/ha alone,35%
same,% Control ERICA Ob (observed visual weed control),[7]; oxyfluorfen 1680 g/ha alone,5%
same,% Control MALNE Ob (observed visual weed control),[8]; oxyfluorfen 1680 g/ha alone,30%
same,% Control ERIBO Ob (observed visual weed control),[9]; oxyfluorfen 1120 g/ha alone,0%
"COc1cnc(OC)n2nc(NS(=O)(=O)c3c(OCC(F)F)cccc3C(F)(F)F)nc12 [Penoxsulam, 2-(2,2-difluoroethoxy)-N-(5,8-dimethoxy-[1,2,4]triazolo[1,5-c]pyrimidin-2-yl)-6-(trifluoromethyl)benzenesulfonamide]",% Control HEOEU Ob (observed visual weed control),[1]; penoxsulam 20 g/ha alone,0%
same,% Control CHEAL Ob (observed visual weed control),[2]; penoxsulam 20 g/ha alone,0%
same,% Control POROL Ob (observed visual weed control),[3]; penoxsulam 20 g/ha alone,0%
same,% Control ERICA (2) Ob (observed visual weed control),[4]; penoxsulam 20 g/ha alone,6%
same,% Control ERICA (1) Ob (observed visual weed control),[4]; penoxsulam 20 g/ha alone,23%
same,% Control SHRAR Ob (observed visual weed control),[5]; penoxsulam 20 g/ha alone,0%
same,% Control SOLNI(2) Ob (observed visual weed control),[6]; penoxsulam 20 g/ha alone,10%
same,% Control SOLNI(1) Ob (observed visual weed control),[6]; penoxsulam 20 g/ha alone,10%
same,% Control ERICA Ob (observed visual weed control),[7]; penoxsulam 8.8 g/ha alone,75%
same,% Control MALNE Ob (observed visual weed control),[8]; penoxsulam 17.5 g/ha alone,37%
same,% Control MALNE Ob (observed visual weed control),[8]; penoxsulam 35 g/ha alone,50%
same,% Control ERIBO Ob (observed visual weed control),[9]; penoxsulam 8.8 g/ha alone,65%
